{"source": "patent US10980765B2", "about": "“Isothiocyanatostilbenes as a novel method and product for treating cancer” (BOARD OF SUPERVISORS OF LOUISIANA STATE UNIVERSITY AND …, priority 2015, dated 2021)", "key": {"[1]": {"test_system": "interaction of human immunodeficiency virus type-1 (HIV-1) with CD4 T-cell receptors", "details": "cited from earlier work"}, "[2]": {"test_system": "matrix metalloproteinase release", "details": "cited from earlier work"}, "[3]": {"test_system": "Akt", "assay": "Western blot of downstream Akt (phospho-Akt) in HGF-treated DU145 cells", "assay_type": "cell-based", "details": "˜8 μM compound, 33 ng/ml HGF 20 min, serum-free", "method": "(§1) Western blot analysis: Cells were grown to ˜70% confluency prior to treatment. Cells were serum-starved in serum-free media for 30 minutes prior to treatment in complete media or serum-free media for the indicated times. Cell lysates were collected in Laemmli (125 mM Tris, 4% SDS, 0.01% bromophenol blue, 30% sucrose) containing 0.5% β-mercaptoethanol and boiled ˜8 minutes. Primary antibodies include: phospho-c-Met (Y1234/1235), phospho-Akt (S473), pEGFR […], pIGF-IRβ (Y1135/1136) (Cell Signaling Technology; Beverly, Mass.); α-actin (Sigma-Aldrich), c-Met (C-28) (Life Technologies). Secondary antibodies include: horseradish peroxidase-conjugated anti-rabbit and anti-mouse (GE Healthcare; Pittsburgh, Pa.). ECL 2 was used for chemiluminescent detection (Thermo Scientific; Rockford, Ill.). Densitometry was calculated using ImageJ (NIH)."}, "[4]": {"molecular_target": "T1, c-Met (Homo sapiens, UniProt P08581)", "T1 sequence (P08581 25-1390)": "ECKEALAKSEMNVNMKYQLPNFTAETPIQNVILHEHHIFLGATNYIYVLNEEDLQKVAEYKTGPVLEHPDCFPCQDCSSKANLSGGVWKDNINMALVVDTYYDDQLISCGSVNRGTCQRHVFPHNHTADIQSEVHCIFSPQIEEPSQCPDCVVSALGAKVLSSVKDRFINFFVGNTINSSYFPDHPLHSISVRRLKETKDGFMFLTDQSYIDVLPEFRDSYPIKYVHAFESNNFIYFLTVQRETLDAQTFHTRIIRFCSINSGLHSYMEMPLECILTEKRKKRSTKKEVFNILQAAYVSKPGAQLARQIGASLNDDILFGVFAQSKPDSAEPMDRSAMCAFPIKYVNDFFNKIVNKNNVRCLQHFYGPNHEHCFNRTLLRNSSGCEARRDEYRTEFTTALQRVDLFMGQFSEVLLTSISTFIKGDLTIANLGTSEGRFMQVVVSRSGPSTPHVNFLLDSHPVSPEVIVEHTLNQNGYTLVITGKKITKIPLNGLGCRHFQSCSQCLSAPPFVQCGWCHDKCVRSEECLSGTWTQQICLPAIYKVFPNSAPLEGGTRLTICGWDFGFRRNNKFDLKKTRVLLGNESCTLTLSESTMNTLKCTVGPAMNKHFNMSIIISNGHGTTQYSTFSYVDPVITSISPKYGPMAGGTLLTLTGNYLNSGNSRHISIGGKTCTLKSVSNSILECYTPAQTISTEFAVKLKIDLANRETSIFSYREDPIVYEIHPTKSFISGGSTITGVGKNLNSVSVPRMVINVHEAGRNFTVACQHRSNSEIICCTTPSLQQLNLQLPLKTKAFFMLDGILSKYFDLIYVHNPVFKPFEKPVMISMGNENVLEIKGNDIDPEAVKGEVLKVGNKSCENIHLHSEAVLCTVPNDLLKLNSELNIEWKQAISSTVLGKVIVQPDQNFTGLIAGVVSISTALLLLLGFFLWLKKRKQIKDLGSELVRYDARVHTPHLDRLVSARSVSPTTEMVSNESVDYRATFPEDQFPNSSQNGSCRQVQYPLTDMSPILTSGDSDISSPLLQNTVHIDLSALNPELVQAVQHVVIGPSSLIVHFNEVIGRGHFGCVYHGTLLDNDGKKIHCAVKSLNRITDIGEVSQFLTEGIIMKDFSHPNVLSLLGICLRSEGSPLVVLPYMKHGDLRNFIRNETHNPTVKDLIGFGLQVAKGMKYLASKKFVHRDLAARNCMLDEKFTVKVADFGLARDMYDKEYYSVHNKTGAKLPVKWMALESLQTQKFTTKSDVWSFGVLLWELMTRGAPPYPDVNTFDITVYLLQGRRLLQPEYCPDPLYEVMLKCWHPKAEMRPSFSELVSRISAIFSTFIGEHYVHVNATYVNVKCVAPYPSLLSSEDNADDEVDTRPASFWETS", "assay": "Western blot of c-Met activation (phospho-c-Met) by HGF in cancer cell lines", "assay_type": "cell-based", "parameters": "endogenous in cells; host or cells: DU145, PC3, MDA-MB-231, HCC1806", "method": "(§2) Western blot was used to analyze pMet expression. […] Western blot was used to analyze the indicated proteins.\n(§3) Western blot was used to analyze the indicated proteins.\nas §3, §1"}, "[5]": {"test_system": "Cells", "assay": "2D proliferation (Cell Titer Blue)", "assay_type": "cell-based", "details": "24-72 hours", "method": "A TO timepoint was also measured. For each timepoint, cells were exposed to Cell Titer Blue reagent (Promega) for 1 hour at 37° C. 5% CO2. Experiments were performed with quadruplicate replicates. Fluorescence was measured using a BioTek Synergy 4 plate reader with Gen5 software."}, "[6]": {"molecular_target": "T2, EGFR (Homo sapiens, UniProt P00533)", "T2 construct": "endogenous in cells; host or cells: DU145", "T2 sequence (P00533 25-1210)": "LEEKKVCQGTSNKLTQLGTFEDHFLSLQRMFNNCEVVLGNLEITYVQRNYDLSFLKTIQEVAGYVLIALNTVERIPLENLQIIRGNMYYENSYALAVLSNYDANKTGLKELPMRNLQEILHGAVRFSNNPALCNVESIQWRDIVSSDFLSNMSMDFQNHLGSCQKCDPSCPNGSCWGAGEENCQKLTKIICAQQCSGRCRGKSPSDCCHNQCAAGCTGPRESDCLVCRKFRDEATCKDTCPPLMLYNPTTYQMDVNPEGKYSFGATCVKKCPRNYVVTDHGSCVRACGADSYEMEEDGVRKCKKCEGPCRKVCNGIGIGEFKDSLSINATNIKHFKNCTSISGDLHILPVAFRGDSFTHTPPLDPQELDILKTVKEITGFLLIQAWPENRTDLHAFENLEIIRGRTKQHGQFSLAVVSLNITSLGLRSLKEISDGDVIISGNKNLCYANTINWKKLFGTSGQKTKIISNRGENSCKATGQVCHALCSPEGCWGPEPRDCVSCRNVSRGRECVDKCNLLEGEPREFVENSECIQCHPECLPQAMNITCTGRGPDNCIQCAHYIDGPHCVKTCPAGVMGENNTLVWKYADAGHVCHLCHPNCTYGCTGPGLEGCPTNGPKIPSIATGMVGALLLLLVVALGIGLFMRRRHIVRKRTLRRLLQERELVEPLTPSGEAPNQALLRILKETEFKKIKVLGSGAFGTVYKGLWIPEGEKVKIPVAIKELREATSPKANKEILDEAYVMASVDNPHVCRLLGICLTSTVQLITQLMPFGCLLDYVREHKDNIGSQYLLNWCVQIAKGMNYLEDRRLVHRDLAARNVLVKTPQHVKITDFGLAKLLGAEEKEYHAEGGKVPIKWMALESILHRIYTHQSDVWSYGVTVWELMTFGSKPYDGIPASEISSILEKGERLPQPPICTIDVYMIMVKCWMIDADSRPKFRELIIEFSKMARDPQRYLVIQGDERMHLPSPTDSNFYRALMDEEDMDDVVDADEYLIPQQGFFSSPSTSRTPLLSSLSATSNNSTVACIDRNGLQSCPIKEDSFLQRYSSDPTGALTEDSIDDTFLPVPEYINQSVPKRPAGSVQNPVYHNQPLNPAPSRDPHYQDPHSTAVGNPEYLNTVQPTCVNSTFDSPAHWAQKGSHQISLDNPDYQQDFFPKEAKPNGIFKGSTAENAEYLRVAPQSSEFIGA", "assay": "Western blot of EGFR activation by EGF in DU145 cells", "assay_type": "cell-based", "details": "4 μM DIDS or 25 μM H2DIDS; DU145, 100 ng/ml EGF 20 min", "method": "as §1"}, "[7]": {"test_system": "succinic dehydrogenase", "details": "cited from earlier work"}, "[8]": {"test_system": "MDA-MB-231/GFP human breast cancer cells", "assay": "Xenograft study, orthotopic breast tumor growth", "assay_type": "in vivo, Athymic nude mice", "details": "5 mg/kg then 10 mg/kg i.p.", "excerpt": "Data are shown as average+S.E.M., *p<0.05.\nXenograft studies: All animal experiments were approved by the Institutional Animal Care and Use Committee, University of Louisiana at Monroe, and were handled in strict accordance with good animal practice as defined by the NIH guidelines. Athymic nude mice (Foxn1^nu/Foxn1^+, 4-5 weeks, female) were purchased from Harlan (Indianapolis, Ind.). The mice had free access to standard pellet food and water. The animals were acclimated to animal house facility conditions at a temperature of 18-25° C., with a relative humidity of 55 to 65% and a 12 h light/dark cycle, for one week prior to the experiments. MDA-MB-231/GFP human breast cancer cells were cultured and resuspended in serum-free DMEM medium (20 μl). After anesthesia, cell suspensions (1×10^6 cells/20 μl) were inoculated subcutaneously into the second mammary gland fat pad just beneath the nipple of each animal to generate orthotopic breast tumors. […] The mice were monitored by measuring tumor volume, body weight, and clinical observation. Tumor volume (V) was calculated by V=L/2×W^2, where L was the length and W was the width of tumors. The results are presented as average ±S.E.M. Differences among various treatment groups were determined by the analysis of variance (ANOVA) followed by Dunnett's test using PASW statistics version 18. […]"}, "[9]": {"test_system": "F0F1-ATP synthase", "details": "cited from earlier work"}, "[10]": {"test_system": "DU145 cells", "assay": "Wound healing", "assay_type": "cell-based", "method": "(§4) Cells were fixed and stained for actin. Representative images are shown. […] Data are shown as mean±S.E.M.; n=3.\nFor invasion (FIGS. 4C and 4D), wounded cells were overlaid with Matrigel diluted 1:5 in serum-free media; n=3.\nWound healing and invasion: DU145 cells were grown to ˜100% confluency prior to wounding with the IncuCyte™ WoundMaker™ (Essen Bioscience; Ann Arbor, Mich.) and washed once with complete media. For invasion, cells were covered with Matrigel diluted 1:5 in serum-free RPMI following wounding. […] Images were taken every 4 hours with the IncuCyte™ ZOOM imaging system (Essen Bioscience). Quadruplicate replicates were used in each experiment. Data are presented as percent wound density ±standard error of the mean (S.E.M.)."}, "[11]": {"test_system": "protein translocation across the ER membrane", "details": "cited from earlier work"}, "[12]": {"molecular_target": "T1, c-Met", "assay": "Western blot of pMet in c-Met amplified H1993 lung cancer cells without HGF", "assay_type": "cell-based", "parameters": "endogenous in cells", "details": "5 μM compound; no HGF, constitutive c-Met activation", "method": "as §2\nH1993 cells have c-Met amplification such that they have high levels of pMet, even in the absence of HGF, due to constitutive c-Met dimerization and autophosphorylation.\nas §1"}, "[13]": {"test_system": "DU145 cells", "assay": "Scattering assay", "assay_type": "cell-based", "details": "4 μM DIDS or 25 μM H2DIDS", "method": "as §4\nCells were fixed and stained for actin. Representative images are shown.\nScattering assay: DU145 cells were grown to ˜50% confluency. […] Cells were fixed with 4% paraformaldehyde and stained with Oregon Green 488 phalloidin (Invitrogen; Carlsbad, Calif.). Images were acquired on an Eclipse TE300 inverted microscope (Nikon; Tokyo, Japan) with NIS Elements version 4.13.04 software. Presented images were taken using a 10× objective."}, "[14]": {"molecular_target": "T3, IGFR (Homo sapiens, UniProt P08069)", "T3 construct": "endogenous in cells; host or cells: DU145", "T3 sequence (P08069 31-1367)": "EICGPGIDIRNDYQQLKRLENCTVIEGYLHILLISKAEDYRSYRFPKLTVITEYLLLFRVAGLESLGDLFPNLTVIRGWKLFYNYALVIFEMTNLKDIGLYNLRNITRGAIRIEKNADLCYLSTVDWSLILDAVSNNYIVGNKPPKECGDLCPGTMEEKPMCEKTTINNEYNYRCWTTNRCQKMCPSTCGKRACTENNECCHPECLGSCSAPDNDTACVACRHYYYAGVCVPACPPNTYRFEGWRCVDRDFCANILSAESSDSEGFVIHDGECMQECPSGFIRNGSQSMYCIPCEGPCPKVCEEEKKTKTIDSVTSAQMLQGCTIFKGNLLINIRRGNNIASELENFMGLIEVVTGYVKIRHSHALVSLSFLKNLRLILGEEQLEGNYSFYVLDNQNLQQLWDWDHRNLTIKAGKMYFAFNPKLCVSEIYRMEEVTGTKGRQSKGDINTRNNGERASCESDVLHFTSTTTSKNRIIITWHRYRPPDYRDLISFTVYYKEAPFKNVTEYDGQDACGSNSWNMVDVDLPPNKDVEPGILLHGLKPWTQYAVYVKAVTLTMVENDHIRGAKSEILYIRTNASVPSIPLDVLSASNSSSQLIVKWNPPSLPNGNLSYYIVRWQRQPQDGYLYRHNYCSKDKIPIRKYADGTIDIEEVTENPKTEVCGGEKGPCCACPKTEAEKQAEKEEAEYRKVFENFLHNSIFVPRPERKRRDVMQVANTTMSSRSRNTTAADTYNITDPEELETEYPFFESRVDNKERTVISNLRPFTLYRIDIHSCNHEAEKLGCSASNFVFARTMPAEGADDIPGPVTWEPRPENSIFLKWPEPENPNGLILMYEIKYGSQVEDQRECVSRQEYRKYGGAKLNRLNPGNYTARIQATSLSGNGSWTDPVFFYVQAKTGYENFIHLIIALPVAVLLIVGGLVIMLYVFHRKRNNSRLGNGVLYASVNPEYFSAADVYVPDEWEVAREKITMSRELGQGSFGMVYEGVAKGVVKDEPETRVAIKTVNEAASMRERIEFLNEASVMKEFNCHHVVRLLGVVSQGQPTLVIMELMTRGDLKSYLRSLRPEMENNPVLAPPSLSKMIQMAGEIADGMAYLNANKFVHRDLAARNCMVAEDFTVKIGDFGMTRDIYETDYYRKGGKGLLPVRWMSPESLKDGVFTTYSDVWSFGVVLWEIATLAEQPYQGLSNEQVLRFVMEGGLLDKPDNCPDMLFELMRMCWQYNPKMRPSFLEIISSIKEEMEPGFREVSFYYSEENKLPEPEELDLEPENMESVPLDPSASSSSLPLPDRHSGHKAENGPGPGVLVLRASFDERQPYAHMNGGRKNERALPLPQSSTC", "assay": "Western blot of IGFR activation by IGF in DU145 cells", "assay_type": "cell-based", "details": "4 μM DIDS or 25 μM H2DIDS; DU145, 100 ng/ml IGF 20 min", "method": "as §1"}}}
{"smiles": "O=S(=O)(O)c1cc(N=C=S)ccc1C=Cc1ccc(N=C=S)cc1S(=O)(=O)O", "note": "[DIDS, 4,4′-Diisothiocyanatostilbene-2,2′-disulfonic acid]", "values": [{"measurement": "concentration preventing interaction of HIV-1 with CD4 T-cell receptors", "setting": "[1]", "value": "low micromolar concentrations"}, {"measurement": "concentration inhibiting matrix metalloproteinase release", "setting": "[2]", "value": "≥ 400", "unit": "µM"}, {"measurement": "reduction of downstream Akt", "setting": "[3]", "value": "~90", "unit": "%"}, {"measurement": "reduction of c-Met activation", "setting": "[4]; 8 μM compound, DU145 cells, 33 ng/ml HGF 20 min, serum-free, Western blot densitometry", "value": "~90", "unit": "%"}, {"measurement": "pMet levels, compound given post HGF treatment", "setting": "[4]; DU145, 33 ng/ml HGF 20 min, wash, then 4 μM DIDS 20 or 60 minutes", "value": "reduced pMet levels"}, {"measurement": "reversibility of c-Met inhibition after wash", "setting": "[4]; DU145, 4 μM DIDS 20 min, one wash, recovery from 20 minutes up to 1 hour, then 33 ng/ml HGF", "value": "does not irreversibly bind c-Met"}, {"measurement": "effective concentrations for reducing c-Met activation in 10% FBS", "setting": "[4]; DU145 cells, 33 ng/ml HGF 20 min, 10% FBS RPMI, compared with serum-free", "value": "slightly higher effective concentrations"}, {"measurement": "c-Met inhibitory effective doses", "setting": "[4]; multiple cancer cell lines (summary)", "value": "low micromolar range"}, {"measurement": "proliferation in complete media in 2D assay", "setting": "[5]; complete media", "value": "minimal effects"}, {"measurement": "serum-free proliferation in 2D assay", "setting": "[5]; serum-free media", "value": "minimal effects"}, {"measurement": "EGFR activation", "setting": "[6]", "value": "do not significantly reduce"}, {"measurement": "concentration reducing activity of succinic dehydrogenase", "setting": "[7]", "value": "low micromolar concentrations"}, {"measurement": "tumor size (caliper)", "setting": "[8]; 3×/week", "value": "began to reduce tumor size towards the end of the experiment"}, {"measurement": "overall tumor weight at necropsy", "setting": "[8]; end of experiment, *p<0.05", "value": "Differences in overall tumor weight were evident"}, {"measurement": "concentration reducing activity of F0F1-ATP synthase", "setting": "[9]", "value": "low micromolar concentrations"}, {"measurement": "HGF-induced wound healing", "setting": "[10]; 4 μM DIDS or 25 μM H2DIDS, 33 ng/ml HGF", "value": "significantly reduced"}, {"measurement": "EGF-mediated wound healing", "setting": "[10]; 4 μM DIDS or 25 μM H2DIDS, 100 ng/ml EGF", "value": "minimal effects"}, {"measurement": "HGF-induced wound healing, dose response", "setting": "[10]; indicated concentrations, 33 ng/mL HGF", "value": "reduce HGF-induced wound healing in a dose response manner"}, {"measurement": "concentration inhibiting protein translocation across the ER membrane", "setting": "[11]", "value": "≥ 400", "unit": "µM"}, {"measurement": "pMet levels in H1993 cells", "setting": "[12]", "value": "much less significant effects"}, {"measurement": "HGF-induced cell scattering", "setting": "[13]; 33 ng/ml HGF overnight", "value": "able to reduce HGF-induced"}, {"measurement": "EGF-induced cell scattering", "setting": "[13]; 100 ng/ml EGF overnight", "value": "not EGF-induced"}, {"measurement": "IGFR activation", "setting": "[14]", "value": "do not significantly reduce"}]}
